The Kinase Knowledgebase extract (Sharma et al. 2016)

Target: CDK2 (human) (UniProt P24941)
Test: Enzyme Assay
Conditions: concentration not given here

Compound	inhibition [%]
Nc1nc(NC2CCN(S(=O)(=O)c3c(Cl)cc(C(F)(F)F)cc3Cl)CC2)sc1C(=O)c1c(F)cccc1F	-23
COc1ccc(CC(=O)N2CCC(Nc3nc(N)c(C(=O)c4c(F)cccc4F)s3)CC2)cc1C	62
COc1ccc(OC)c(CC(=O)N2CCC(Nc3nc(N)c(C(=O)c4c(F)cccc4F)s3)CC2)c1	57
CC(=O)OCC(=O)N1CCC(Nc2nc(N)c(C(=O)c3c(F)cccc3F)s2)CC1	25
CC(O)(C(=O)N1CCC(Nc2nc(N)c(C(=O)c3c(F)cccc3F)s2)CC1)c1ccccc1 (centres undefined)	49
C=CCCCC(=O)N1CCC(Nc2nc(N)c(C(=O)c3c(F)cccc3F)s2)CC1	39
Nc1nc(NC2CCN(C(=O)CCO)CC2)sc1C(=O)c1c(F)cccc1F	39
Nc1nc(NC2CCN(C(=O)[C@@H](O)C3CCCCC3)CC2)sc1C(=O)c1c(F)cccc1F	51
COc1cc(N)ccc1/C=C/C(=O)N1CCC(Nc2nc(N)c(C(=O)c3c(F)cccc3F)s2)CC1	56
CCCCOCC(=O)N1CCC(Nc2nc(N)c(C(=O)c3c(F)cccc3F)s2)CC1	79
CC(CC(=O)N1CCC(Nc2nc(N)c(C(=O)c3c(F)cccc3F)s2)CC1)CC(C)(C)C (centres undefined)	35
CC1CCC(C(=O)N2CCC(Nc3nc(N)c(C(=O)c4c(F)cccc4F)s3)CC2)CC1 (centres undefined)	59
CCOC(=O)N1CCC(Nc2nc(N)c(C(=O)c3c(F)cccc3F)s2)CC1	-13
N#C/C(=C\c1cccc(O)c1)C(=O)N1CCC(Nc2nc(N)c(C(=O)c3c(F)cccc3F)s2)CC1	84
CCOCCC(=O)N1CCC(Nc2nc(N)c(C(=O)c3c(F)cccc3F)s2)CC1	18
Nc1nc(NC2CCN(C(=O)CCC(=O)c3cccs3)CC2)sc1C(=O)c1c(F)cccc1F	63
Nc1nc(NC2CCN(C(=O)c3nc4ccccc4nc3O)CC2)sc1C(=O)c1c(F)cccc1F	12
N#Cc1ccc(/C=C/C(=O)N2CCC(Nc3nc(N)c(C(=O)c4c(F)cccc4F)s3)CC2)cc1	41
C=CCCCCC(=O)N1CCC(Nc2nc(N)c(C(=O)c3c(F)cccc3F)s2)CC1	16
CCCCC[C@H]1CC[C@H](C(=O)N2CCC(Nc3nc(N)c(C(=O)c4c(F)cccc4F)s3)CC2)CC1	14
COc1ccc2[nH]c(C(=O)N3CCC(Nc4nc(N)c(C(=O)c5c(F)cccc5F)s4)CC3)cc2c1	35
Nc1nc(NC2CCN(C(=O)c3ccc(F)c(Cl)c3)CC2)sc1C(=O)c1c(F)cccc1F	48

Compound	inhibition [%]
Nc1nc(NC2CCN(C(=O)/C=C/c3ccccc3Cl)CC2)sc1C(=O)c1c(F)cccc1F	83
Nc1nc(NC2CCN(C(=O)c3ccc4ccccc4c3)CC2)sc1C(=O)c1c(F)cccc1F	38
CC(=O)CC(C(=O)N1CCC(Nc2nc(N)c(C(=O)c3c(F)cccc3F)s2)CC1)c1ccccc1 (centres undefined)	17
C=CCC/C=C/C(=O)N1CCC(Nc2nc(N)c(C(=O)c3c(F)cccc3F)s2)CC1	69
COc1ccc(C(=O)N2CCC(Nc3nc(N)c(C(=O)c4c(F)cccc4F)s3)CC2)cc1OC	-23
C=CCc1ccccc1OCC(=O)N1CCC(Nc2nc(N)c(C(=O)c3c(F)cccc3F)s2)CC1	76
CC(=O)Oc1c(C)cccc1C(=O)N1CCC(Nc2nc(N)c(C(=O)c3c(F)cccc3F)s2)CC1	50
Nc1nc(NC2CCN(C(=O)c3csnn3)CC2)sc1C(=O)c1c(F)cccc1F	68
Cc1cc(C(=O)N2CCC(Nc3nc(N)c(C(=O)c4c(F)cccc4F)s3)CC2)nn1C	40
Nc1nc(NC2CCN(S(=O)(=O)c3ccc(O)c(C(=O)O)c3)CC2)sc1C(=O)c1c(F)cccc1F	-16
Nc1nc(NC2CCN(C(=O)/C=C/c3cc(O)ccc3O)CC2)sc1C(=O)c1c(F)cccc1F	80
CC(C)(CO)C(=O)N1CCC(Nc2nc(N)c(C(=O)c3c(F)cccc3F)s2)CC1	41
Nc1nc(NC2CCN(C(=O)c3cccnc3Sc3ccc(Cl)cc3)CC2)sc1C(=O)c1c(F)cccc1F	-73
Nc1nc(NC2CCN(C(=O)[C@@H](O)c3ccccc3)CC2)sc1C(=O)c1c(F)cccc1F	61
COc1cc(C(=O)N2CCC(Nc3nc(N)c(C(=O)c4c(F)cccc4F)s3)CC2)cc(OC)c1C	58
COC(C(=O)N1CCC(Nc2nc(N)c(C(=O)c3c(F)cccc3F)s2)CC1)c1ccccc1 (centres undefined)	28
Nc1nc(NC2CCN(C(=O)C(CO)c3ccccc3)CC2)sc1C(=O)c1c(F)cccc1F (centres undefined)	57
COc1ccc(C(O)C(=O)N2CCC(Nc3nc(N)c(C(=O)c4c(F)cccc4F)s3)CC2)cc1O (centres undefined)	58
Nc1nc(NC2CCN(C(=O)c3ccc4c(c3)CCO4)CC2)sc1C(=O)c1c(F)cccc1F	83
Cn1ncc(C(=O)N2CCC(Nc3nc(N)c(C(=O)c4c(F)cccc4F)s3)CC2)c1[N+](=O)[O-]	40
CC1(C(=O)N2CCC(Nc3nc(N)c(C(=O)c4c(F)cccc4F)s3)CC2)CCCCC1	-5
CC(=O)Oc1cccc(C(=O)N2CCC(Nc3nc(N)c(C(=O)c4c(F)cccc4F)s3)CC2)c1	56

Compound	inhibition [%]
COCCOCC(=O)N1CCC(Nc2nc(N)c(C(=O)c3c(F)cccc3F)s2)CC1	73
Nc1nc(NC2CCN(C(=O)C3CC3)CC2)sc1C(=O)c1c(F)cccc1F	-2
Nc1nc(NC2CCN(C(=O)CCOc3ccc(F)cc3)CC2)sc1C(=O)c1c(F)cccc1F	61
COc1cccc(OCC(=O)N2CCC(Nc3nc(N)c(C(=O)c4c(F)cccc4F)s3)CC2)c1	61
CC(=O)Nc1cc(C(=O)N2CCC(Nc3nc(N)c(C(=O)c4c(F)cccc4F)s3)CC2)ccc1C	64
Nc1nc(NC2CCN(C(=O)/C=C/c3ccccc3)CC2)sc1C(=O)c1c(F)cccc1F	47
Cc1ccc(/C=C/C(=O)N2CCC(Nc3nc(N)c(C(=O)c4c(F)cccc4F)s3)CC2)cc1C	52
COC(=O)CCCC(=O)N1CCC(Nc2nc(N)c(C(=O)c3c(F)cccc3F)s2)CC1	45
Cc1ccc(C)c(OCC(=O)N2CCC(Nc3nc(N)c(C(=O)c4c(F)cccc4F)s3)CC2)c1	26
Nc1nc(NC2CCN(C(=O)/C=C/C=C/c3ccccc3)CC2)sc1C(=O)c1c(F)cccc1F	58
COCCOC(=O)N1CCC(Nc2nc(N)c(C(=O)c3c(F)cccc3F)s2)CC1	-11
CC(=O)SC[C@@H](C)C(=O)N1CCC(Nc2nc(N)c(C(=O)c3c(F)cccc3F)s2)CC1	46
Nc1nc(NC2CCN(C(=O)c3ccccc3C(F)(F)F)CC2)sc1C(=O)c1c(F)cccc1F	-12
Nc1nc(NC2CCN(C(=O)OCc3ccccc3)CC2)sc1C(=O)c1c(F)cccc1F	-32
Nc1nc(NC2CCN(C(=O)CSc3ccccc3F)CC2)sc1C(=O)c1c(F)cccc1F	75
CC(C)(C(=O)N1CCC(Nc2nc(N)c(C(=O)c3c(F)cccc3F)s2)CC1)c1ccccc1	33
CCCN(CCC)[C@@H](C)C(=O)N1CCC(Nc2nc(N)c(C(=O)c3c(F)cccc3F)s2)CC1	6
Nc1nc(NC2CCN(C(=O)C(O)c3cccc(O)c3)CC2)sc1C(=O)c1c(F)cccc1F (centres undefined)	47
CCOc1ccccc1CC(=O)N1CCC(Nc2nc(N)c(C(=O)c3c(F)cccc3F)s2)CC1	71
Cc1nn(C)c2ncc(C(=O)N3CCC(Nc4nc(N)c(C(=O)c5c(F)cccc5F)s4)CC3)c(Cl)c12	16
